Data reported in patent publication US20240415918A1, “Polypeptide and its use as a CCK receptor agonist/antagonist” (Centre for Regenerative Medicine & Health, Hong Kong …, priority 2021, published 2024).

Assays:
[1] = target: T1, CCK-B receptors (CHO-CCK) (Homo sapiens, UniProt P32239); assay: Calcium flux (Fluo-8) agonist test on CHO-CCK model cells; format: cell-based; conditions: for EC50: CHO-CCK cells, compound alone, 100% = 20 nM CCK8; for Agonistic Activity (%) at 10 μM: compound at 10 μM, percentage of signal of 20 nM CCK8 alone
T1 construct: expressed in transfected cells; host or cells: CHO (CHO-CCK model cells)
T1 sequence (P32239 1-447): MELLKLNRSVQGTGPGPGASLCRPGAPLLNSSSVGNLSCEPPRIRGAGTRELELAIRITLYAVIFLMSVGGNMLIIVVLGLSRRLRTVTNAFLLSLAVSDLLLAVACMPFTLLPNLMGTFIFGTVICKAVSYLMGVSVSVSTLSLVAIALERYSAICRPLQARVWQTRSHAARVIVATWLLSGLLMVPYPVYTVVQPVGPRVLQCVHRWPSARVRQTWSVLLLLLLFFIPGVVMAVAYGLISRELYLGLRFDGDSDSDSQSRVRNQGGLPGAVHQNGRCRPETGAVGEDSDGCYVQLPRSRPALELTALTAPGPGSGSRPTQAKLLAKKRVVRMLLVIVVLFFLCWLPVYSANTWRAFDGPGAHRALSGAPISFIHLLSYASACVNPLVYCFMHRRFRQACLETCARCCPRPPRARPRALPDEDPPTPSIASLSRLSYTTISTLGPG
How it was run: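 Agonist-mode Fluo-8 calcium flux read on CHO-CCK cells after dye loading 30 min at 37 °C plus 30 min at room temperature.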

[2] = target: T1, CCK-B receptors (CHO-CCK); assay: Calcium flux (Fluo-8) antagonist test on CHO-CCK model cells in presence of CCK8; format: cell-based
Experimental: The compound was formulated to a 10 mM mother liquor with DMSO, and then diluted into a series of 9 concentrations with a 3-fold gradient to form a 1000× stock solution. […] Prepare 1×Fluo-8 analysis buffer: mix 9 mL of HHBS, 1 mL of 10× Pluronic F127 Plus and 20 μL of Fluo-8 thoroughly for later use. • 3. Add Fluo-8 dye working solution to the cell plate, 100 μL/well. First incubate in a 37° C. incubator for 30 min, and then take it out and incubate at room temperature in the dark for 30 min. • 4. In the process of incubating cells, the compounds to be detected were prepared with HHBS. • 5. […] The agonism/antagonism EC50 of the compound can be obtained by plotting the fitting curve with the agonism/antagonism percentage as Y-axis and the concentration of the compound as X-axis.

[3] = compound together with 10 nM CCK8
[4] = compound together with 10 nM CCK8, bound in μM

Structure (SMILES) | EC50 [1] [µM] | Agonistic Activity (%) at 10 μM [1] [%] | EC50 [2, 3] [µM] | EC50 [2, 4] [µM]
CSCC[C@H](NC(=O)[C@H](N)Cc1c[nH]c2ccccc12)C(=O)N[C@@H](CC(=O)O)C(=O)N[C@@H](Cc1ccccc1F)C(N)=O [HT-25, D-Trp-Met-Asp-Phe(2-F)-NH2] | 0.225 | 89.41 | 0.603 | –
CSCC[C@H](NC(=O)[C@H](N)Cc1c[nH]c2ccccc12)C(=O)N[C@@H](CC(=O)O)C(=O)N[C@@H](Cc1cccc(Cl)c1)C(N)=O [HT-26, D-Trp-Met-Asp-Phe(3-Cl)-NH2] | 0.0784 | 85.75 | 0.635 | –
CSCC[C@H](NC(=O)[C@H](N)Cc1c[nH]c2ccccc12)C(=O)N[C@@H](CC(=O)O)C(=O)N[C@@H](Cc1cccc(F)c1)C(N)=O [HT-27, D-Trp-Met-Asp-Phe(3-F)-NH2] | 0.155 | 79.08 | 1.34 | –
CSCC[C@H](NC(=O)[C@H](N)Cc1c[nH]c2ccccc12)C(=O)N[C@@H](CC(=O)O)C(=O)N[C@@H](Cc1cccc(I)c1)C(N)=O [HT-28, D-Trp-Met-Asp-Phe(3-I)-NH2] | 0.154 | 49.93 | 0.149 | –
CSCC[C@H](NC(=O)[C@H](N)Cc1c[nH]c2ccccc12)C(=O)N[C@@H](CC(=O)O)C(=O)N[C@@H](Cc1cccc(Br)c1)C(N)=O [HT-29, D-Trp-Met-Asp-Phe(3-Br)-NH2] | 0.0081 | 85.68 | 0.106 | –
CSCC[C@H](NC(=O)[C@H](N)Cc1c[nH]c2ccccc12)C(=O)N[C@@H](CC(=O)O)C(=O)N[C@@H](Cc1ccc(C)cc1)C(N)=O [HT-30, D-Trp-Met-Asp-Phe(4 Me)-NH2] | 0.0932 | 88.74 | 0.683 | –
CSCC[C@H](NC(=O)[C@H](N)Cc1c[nH]c2ccccc12)C(=O)N[C@@H](CC(=O)O)C(=O)N[C@@H](Cc1ccc(C#N)cc1)C(N)=O [HT-32, D-Trp-Met-Asp-Phe(4-CN)-NH2] | 1.13 | 57.37 | 2.66 | –
CSCC[C@H](NC(=O)[C@H](N)Cc1c[nH]c2ccccc12)C(=O)N[C@@H](CC(=O)O)C(=O)N[C@@H](Cc1ccc([N+](=O)[O-])cc1)C(N)=O [HT-33, D-Trp-Met-Asp-Phe(4-NO2)-NH2] | 0.241 | 71.20 | 1.2 | –
CSCC[C@H](NC(=O)[C@H](N)Cc1c[nH]c2ccccc12)C(=O)N[C@@H](CC(=O)O)C(=O)N[C@@H](Cc1ccc(Br)cc1)C(N)=O [HT-34, D-Trp-Met-Asp-Phe(4-Br)-NH2] | 0.369 | 98.24 | 2.25 | –
CSCC[C@H](NC(=O)[C@H](N)Cc1c[nH]c2ccccc12)C(=O)N[C@@H](CC(=O)O)C(=O)N[C@@H](Cc1ccc(Cl)cc1)C(N)=O [HT-35, D-Trp-Met-Asp-Phe(4-CII)-NH2] | 0.18 | 109.16 | 0.755 | –
CSCC[C@H](NC(=O)[C@H](N)Cc1c[nH]c2ccccc12)C(=O)N[C@@H](CC(=O)O)C(=O)N[C@@H](Cc1ccc(F)cc1)C(N)=O [HT-36, D-Trp-Met-Asp-Phe(4-F)-NH2] | 0.0888 | −3.55 | 0.876 | –
CSCC[C@H](NC(=O)[C@H](N)Cc1c[nH]c2ccccc12)C(=O)N[C@@H](CC(=O)O)C(=O)N[C@@H](Cc1ccc(I)cc1)C(N)=O [HT-37, D-Trp-Met-Asp-Phe(4-I)-NH2] | 0.864 | 52.04 | 1.22 | –
CSCC[C@H](NC(=O)[C@H](N)Cc1c[nH]c2ccccc12)C(=O)N[C@@H](CC(=O)O)C(=O)N[C@@H](Cc1cc(Cl)cc(Cl)c1)C(N)=O [HT-38, D-Trp-Met-Asp-Phe(3,5-DiCl)-NH2] | 0.0493 | 122.74 | 0.0997 | –
CSCC[C@H](NC(=O)[C@H](N)Cc1c[nH]c2ccccc12)C(=O)N[C@@H](CC(=O)O)C(=O)N[C@@H](Cc1cc(F)cc(F)c1)C(N)=O [HT-39, D-Trp-Met-Asp-Phe(3,5-DiF)-NH2] | 0.0442 | 119.04 | 0.631 | –
CSCC[C@H](NC(=O)[C@H](N)Cc1c[nH]c2ccccc12)C(=O)N[C@@H](CC(=O)O)C(=O)N[C@@H](Cc1cc(F)c(F)c(F)c1)C(N)=O [HT-40, D-Trp-Met-Asp-Phe(3,4,5-TriF)-NH2] | 0.078 | 98.25 | 0.244 | –
C[S+]([O-])CC[C@H](NC(=O)[C@H](N)Cc1c[nH]c2ccccc12)C(=O)N[C@@H](CC(=O)O)C(=O)N[C@@H](Cc1ccccc1F)C(N)=O (stereo partly drawn) [HT-42, D-Trp-Met(O)-Asp-Phe(2-F)-NH2] | – | 17.97 | 8.41 | –
C[S+]([O-])CC[C@H](NC(=O)[C@H](N)Cc1c[nH]c2ccccc12)C(=O)N[C@@H](CC(=O)O)C(=O)N[C@@H](Cc1cccc(Cl)c1)C(N)=O (stereo partly drawn) [HT-43, D-Trp-Met(O)-Asp-Phe(3-Cl)-NH2] | 3.02 | 62.14 | 8.97 | –
C[S+]([O-])CC[C@H](NC(=O)[C@H](N)Cc1c[nH]c2ccccc12)C(=O)N[C@@H](CC(=O)O)C(=O)N[C@@H](Cc1cccc(F)c1)C(N)=O (stereo partly drawn) [HT-44, D-Trp-Met(O)-Asp-Phe(3-F)-NH2] | – | 34.63 | – | > 10
C[S+]([O-])CC[C@H](NC(=O)[C@H](N)Cc1c[nH]c2ccccc12)C(=O)N[C@@H](CC(=O)O)C(=O)N[C@@H](Cc1cccc(I)c1)C(N)=O (stereo partly drawn) [HT-45, D-Trp-Met(O)-Asp-Phe(3-I)-NH2] | 4.38 | 58.98 | 3.37 | –
C[S+]([O-])CC[C@H](NC(=O)[C@H](N)Cc1c[nH]c2ccccc12)C(=O)N[C@@H](CC(=O)O)C(=O)N[C@@H](Cc1cccc(Br)c1)C(N)=O (stereo partly drawn) [HT-46, D-Trp-Met(O)-Asp-Phe(3-Br)-NH2] | 3.8 | 53.69 | 6.24 | –
C[S+]([O-])CC[C@H](NC(=O)[C@H](N)Cc1c[nH]c2ccccc12)C(=O)N[C@@H](CC(=O)O)C(=O)N[C@@H](Cc1ccc(F)cc1)C(N)=O (stereo partly drawn) [HT-53, D-Trp-Met(O)-Asp-Phe(4-F)-NH2] | – | 30.00 | 8.88 | –
C[S+]([O-])CC[C@H](NC(=O)[C@H](N)Cc1c[nH]c2ccccc12)C(=O)N[C@@H](CC(=O)O)C(=O)N[C@@H](Cc1cc(Cl)cc(Cl)c1)C(N)=O (stereo partly drawn) [HT-55, D-Trp-Met(O)-Asp-Phe(3,5-DiCl)-NH2] | 1.65 | 62.28 | 1.79 | –
CS(=O)(=O)CC[C@H](NC(=O)[C@H](N)Cc1c[nH]c2ccccc12)C(=O)N[C@@H](CC(=O)O)C(=O)N[C@@H](Cc1ccccc1F)C(N)=O [HT-59, D-Trp-Met(O2)-Asp-Phe(2-F)-NH2] | – | 39.73 | 9.22 | –
CS(=O)(=O)CC[C@H](NC(=O)[C@H](N)Cc1c[nH]c2ccccc12)C(=O)N[C@@H](CC(=O)O)C(=O)N[C@@H](Cc1cccc(Cl)c1)C(N)=O [HT-60, D-Trp-Met(O2)-Asp-Phe(3-Cl)-NH2] | 9.24 | 50.72 | 6.61 | –
CS(=O)(=O)CC[C@H](NC(=O)[C@H](N)Cc1c[nH]c2ccccc12)C(=O)N[C@@H](CC(=O)O)C(=O)N[C@@H](Cc1cccc(F)c1)C(N)=O [HT-61, D-Trp-Met(O2)-Asp-Phe(3-F)-NH2] | – | 36.66 | – | > 10
CS(=O)(=O)CC[C@H](NC(=O)[C@H](N)Cc1c[nH]c2ccccc12)C(=O)N[C@@H](CC(=O)O)C(=O)N[C@@H](Cc1cccc(Br)c1)C(N)=O [HT-63, D-Trp-Met(O2)-Asp-Phe(3-Br)-NH2] | 6.05 | 48.46 | 7.5 | –
